Patent US20260240798A1, “SOLID FORMS OF RXFP1 MODULATORS” (ASTRAZENECA AB, priority 2022, published 2026)
In brackets after ≈: the same amount, converted by molar mass.

Columns and labels:
[1] = cited from earlier work
[2] = Solubility of crystalline Form A of Compound (I) in pH 1.2 SGF, shake-flask (Test J); type: physicochemical; conditions: simulated gastric fluid pH 1.2 (SGF), thermodynamic from solid, 37° C., 24 h agitation
Method: Crystalline solubility in simulated gastric fluid pH 1.2 (SGF) was measured using a miniaturized shake-flask method (24 h agitation at 37° C.).
The samples were agitated at 37° C. for 24 hours in an Eppendorf shaker, agitation speed 1000 rpm. The samples were then centrifuged at 10000 RPM for 15 minutes, 37° C. Approximately 500 μL of the supernatant was withdrawn with automatic pipette to a new vial and centrifuged again for 15 min at 10000 rpm, 37° C. Then from the second centrifugation, samples were taken with automatic pipette to final dilution. pH was measured in the equilibrated remaining sample solution after the second centrifugation. XRPD was used to confirm that no form change had occurred.

human RXFP1 [3] = biological target: T1, human RXFP1 (Homo sapiens, UniProt Q9HBX9); assay: Human RXFP1 cGMP Production Assay (Test G); type: cell-based; conditions: HEK293s cells stably transfected with human RXFP1
T1 construct: expressed in transfected cells; host or cells: HEK293s cells, vector pIRESneo3
T1 sequence (Q9HBX9 1-757): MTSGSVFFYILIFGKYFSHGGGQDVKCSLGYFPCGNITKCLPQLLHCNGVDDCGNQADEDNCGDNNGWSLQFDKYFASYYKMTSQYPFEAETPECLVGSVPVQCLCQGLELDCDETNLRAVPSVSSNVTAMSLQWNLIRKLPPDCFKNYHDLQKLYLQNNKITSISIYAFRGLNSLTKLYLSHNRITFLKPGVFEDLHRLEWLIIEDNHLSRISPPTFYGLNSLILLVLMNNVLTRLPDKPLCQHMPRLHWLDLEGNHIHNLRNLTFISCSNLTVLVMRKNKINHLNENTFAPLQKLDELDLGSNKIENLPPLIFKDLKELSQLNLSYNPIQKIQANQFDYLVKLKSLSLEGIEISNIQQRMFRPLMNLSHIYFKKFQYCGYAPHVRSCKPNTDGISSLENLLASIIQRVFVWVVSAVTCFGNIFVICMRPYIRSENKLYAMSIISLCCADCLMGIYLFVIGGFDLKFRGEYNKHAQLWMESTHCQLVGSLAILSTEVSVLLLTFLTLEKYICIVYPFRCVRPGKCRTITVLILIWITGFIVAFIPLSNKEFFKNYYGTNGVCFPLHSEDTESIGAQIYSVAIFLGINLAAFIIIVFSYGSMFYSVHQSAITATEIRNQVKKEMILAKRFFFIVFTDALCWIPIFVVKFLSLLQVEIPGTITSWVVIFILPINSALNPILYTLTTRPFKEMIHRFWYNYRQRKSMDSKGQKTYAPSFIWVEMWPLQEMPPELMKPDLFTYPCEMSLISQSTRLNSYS
Method: Human RXFP1 cGMP Production Assay (Test G)
To profile compounds for RXFP1 agonist activity with respect to cGMP production, the Green GENIe cGMP Assay (Montana Molecular; catalogue number D800G) was employed. […] Fluorescence is reduced when cGMP is bound to the biosensor.
(§1) Cells: HEK293s cells stably transfected with human RXFP1 in pIRESneo3 was employed.
• 2. […] Cells and transduction mastermix were mixed in proportions 30 μL cells and 20 μL mastermix for a single well. • 6. […] Plate was incubated in the dark at 37° C., 5% CO2 for 24 h.
• 8. Medium was removed from plates using a Bluewasher (BluCatBio). • 9. 20 μL assay buffer was added with a Multidrop Combi (ThermoFisher). • 10. Plate was incubated in the dark at room temperature for 30 min prior to assaying. • 11. Plates were assayed using a FLIPR Tetra (Molecular Devices): 10 μL compound diluted with assay buffer was added to each well by the FLIPR Tetra and measuring green fluorescence over time for up to 3 h.
After subtraction of background fluorescence (before addition of compounds), area under curve values from 0 to 90 min after compound addition was used for calculation of responses.

human RXFP1 [4] = biological target: T1, human RXFP1; assay: Human RXFP1 Phospho-ERK Assay (Test H); type: cell-based; conditions: HEK293s cells stably transfected with human RXFP1; read-out: Test H phospo-ERK assay EC50
Text: as §1

Human Plasma Protein = Human Plasma Protein Binding (Test B); type: in vitro ADME; conditions: fraction unbound (fu)
Method: Human Plasma Protein Binding (Test B)
The assay was conducted according to the Human Plasma Protein Binding Assay described in pages 167-170 of Wernevik, J. et al., “A Fully Integrated Assay Panel for Early Drug Metabolism and Pharmacokinetics Profiling”, Assay and Drug Development Technologies, 2020, 18(4), 157-179. Data are reported in Table 1 as fraction unbound (fu) (% free). Where the assay was run multiple times for the same compound, the arithmetic mean is reported.

[5] = Solubility of amorphous Compound (I) in pH 1.2 SGF, turbidimetric method (Test I); type: physicochemical; conditions: 37° C.
Method: 10 μL of the stock solution was rapidly injected into 990 μL of stabilizer solution containing 0.2% w/w PVPK30 and 0.2% w/w Pluronic F127 and 0.25 mM SDS aqueous solution under a few seconds of ultrasonic treatment to make a 1 mM amorphous nanosuspension. This formulation is further diluted to 0.25 mM with purified water.
The bulk concentration in equilibrium with amorphous particles is determined at 37° C. by a turbidimetric method (described in Lindfors et. al., Langmuir, 2006, 22(3), 911-916). Small volumes of drug suspension are successively added directly to a fluorescence cuvette containing 2000 μL simulated gastric fluid pH 1.2 (SGF) and are then mixed to give the desired concentrations. The light scattering intensity at 700 nm is recorded at a scattering angle of 90° as a function of total drug concentration. As a light scattering setup, a Perkin-Elmer LS 55 Luminescence Spectrometer is used, setting both the emission and excitation wavelengths to 700 nm. Slit excitation is set to 2.5 nm and slit emission is set to 5 nm. Particles are allowed to dissolve for at least 30 seconds prior to measurements starting. Data are then collected for 1 minute and a mean light scattering intensity is calculated. The solubility examination was performed within 45 min of the formation of the amorphous nanosuspension.
At low concentrations the particles dissolve, while at concentrations above the solubility, the particles remain suspended, leading to an almost linear increase in light scattering intensity as a function of total concentration.

[6] = Solubility (pH 7.4) (Test F); type: physicochemical; conditions: pH 7.4, aqueous buffer
Method: Solubility (pH 7.4) (Test F)
The assay was conducted according to the Solubility Assay described in pages 164-167 of Wernevik, J. et al., “A Fully Integrated Assay Panel for Early Drug Metabolism and Pharmacokinetics Profiling”, Assay and Drug Development Technologies, 2020, 18(4), 157-179. Where the assay was run multiple times for the same compound, the arithmetic mean is reported.

In the case of serelaxin, the blood pressure drop ([1]; approximately one third of the patients, intravenous) is given as over 40 mm Hg, the “markers of cardiac, renal and hepatic damage and congestion” value ([1]; hospitalized patients, continuous intravenous administration) is given as “improved” and the “clearance from the patients' circulation” value ([1]; patients) is given as “rapid clearance”.
Work on `COc1cc(F)c(O[C@H]2CC[C@@](C)(C(=O)O)CC2)cc1C(=O)N[C@@H]1[C@H]2CC[C@H](C2)[C@@H]1C(=O)NCC1(C)CCC1` [Form A of Compound (I), (1S,4s)-4-(2-Fluoro-4-methoxy-5-(((1S,2R,3S,4R)-3-(((1-methylcyclobutyl)methyl)carbamoyl)bicyclo[2.2.1]heptan-2-yl)carbamoyl)phenoxy)-1-methylcyclohexane-1-carboxylic acid] yielded a solubility at 24 h [2] of 0.4 µM (≈ 0.218 µg/mL).
For relaxin2, the EC50 (human RXFP1 [3]) was 0.085 nM and the EC50 (human RXFP1 [4]) was 0.038 nM.
In the case of `COc1cc(F)c(O[C@H]2CC[C@@](C)(C(=O)O)CC2)cc1C(=O)N[C@@H]1[C@H]2CC[C@H](C2)[C@@H]1C(=O)NCC1(C)CCC1` [Compound (I), (1S,4s)-4-(2-fluoro-4-methoxy-5-(((1S,2R,3S,4R)-3-(((1-methylcyclobutyl)methyl)carbamoyl)bicyclo[2.2.1]heptan-2-yl)carbamoyl)phenoxy)-1-methylcyclohexane-1-carboxylic acid], the “Test B Human Plasma Protein Binding (% free)” value (Human Plasma Protein) is reported as 4.3 % free, the solubility ([5]; simulated gastric fluid pH 1.2 (SGF), simulated gastric fluid, kinetic from dmso stock, amorphous nanosuspension, extrapolation of light scattering to zero intensity) is reported as 8 µM (≈ 4.36 µg/mL) and the “Mean light scattering intensity” value ([5]; total concentration 1.2 uM) is reported as 0.16 a.u. For the same compound, the “Mean light scattering intensity” value ([5]; total concentration 2.5 uM) was 0.28 a.u, the “Mean light scattering intensity” value ([5]; total concentration 3.7 uM) was 0.33 a.u and the “Mean light scattering intensity” value ([5]; total concentration 6.1 uM) was 0.33 a.u. For the same compound, the “Mean light scattering intensity” value ([5]; total concentration 8.5 uM) was 1.71 a.u, the “Mean light scattering intensity” value ([5]; total concentration 10.8 uM) was 4.94 a.u and the “Mean light scattering intensity” value ([5]; total concentration 13.0 uM) was 8.19 a.u. The “Mean light scattering intensity” value ([5]; total concentration 15.3 uM) was 11.77 a.u, the “Mean light scattering intensity” value ([5]; total concentration 17.4 uM) was 15.33 a.u and the “Mean light scattering intensity” value ([5]; total concentration 19.6 uM) was 18.47 a.u. For the same compound, the solubility [6] was over 500 µM.
